For one assay, the system named is U2OS WT cells. Description: Cytoplasmic quinacrine granularity (intracellular ATP, indicator of ATP release). Format: cell-based, human. The following applies: lurbinectedin 1 nM to 1 μM, MTX 1 and 3 μM, dose-dependent, decreased over time, vs untreated controls. How it is done:
(a) Human osteosarcoma U2OS (a), human breast cancer HCC70 (b) human colon cancer HT29 cells (c) and murine methylcholantrene-induced fibrosarcoma MCA205 cells (d) were treated with lurbinectedin (Lurbi, 1 nM, 10 nM, 100 nM and 1 μM) for the indicated times. Subsequently, the cells were stained with 1 μM Hoechst 33342 and 1 μM propidium iodide and assessed for the loss of viability by automated image acquisition. Images were segmented, cellular debris was excluded and the number of cells with normal nuclear morphology was enumerated. Cells stably expressing CALR-GFP were treated as above. Following the cells were fixed with 3.7% of PFA, stained with 1 μM Hoechst 33342 and assessed by automated image acquisition. Images were segmented, cellular debris was excluded and CALR-GFP granularity (a surrogate marker of CALR exposure) was evaluated in the cytoplasmic region of cells with normal nuclear morphology. Wild type cells were treated as above and then assessed for cytoplasmic quinacrine granularity (after staining with the ATP-sensitive dye quinacrine together with Hoechst 33342) by automated image acquisition, segmentation and analysis. Cells stably expressing HMGB1-GFP were treated as above and then assessed for nuclear HMGB1-GFP fluorescence intensity. The cells were fixed and stained with Hoechst 33342 and images were acquired, segmented and analyzed. […]

Another assay deals with MCA205 tumours. Put plainly: Established MCA205 tumours in immunodeficient mice. Format: in vivo. To be noted: athymic (nu/nu) mice; 0.18 mg/kg i.v. day 1, 7 and 14. How it is done:
Live MCA205 cells were injected subcutaneously (s.c.) into immunocompetent C57BL/6 mice or immunodeficient nu/nu mice as depicted in the scheme in (a) When tumours became palpable, mice were intravenously ([…]). Tumour growth was assessed regularly for the following 30 days. Data is depicted as tumour growth curves (b,d) and overall survival plots (c,e). Data were analyzed with TumGrowth.
In order to assess the capacity of lurbinectedin to stimulate anticancer immunity in a monotherapeutic approach and to convert tumour cells into a therapeutic vaccine we exposed murine fibrosarcoma cells to the drug in vitro (in conditions previously established to induce a sufficient amplitude of cell death) and then injected the dying cancer cells into syngeneic immunocompetent mice. […] Next we evaluated the effect of lurbinectedin on established cancers growing on immunocompetent or immunodeficient mice. […]
Six- to eight-week-old female wild-type C57BL/6 and nu/nu mice were obtained from Envigo France (Huntingdon, UK) and were kept in the animal facility at the Gustave Roussy Campus Cancer in a specific pathogen-free and temperature-controlled environment with 12 h day, 12 h night cycles and received food and water ad libitum. […] Animals were monitored and tumour growth documented regularly until end-points were reached. […]

Take `COc1ccc2[nH]c3c(c2c1)CCN[C@]31CS[C@@H]2c3c(OC(C)=O)c(C)c4c(c3[C@H](COC1=O)N1[C@@H]2[C@H]2c3c(cc(C)c(OC)c3O)C[C@@H]([C@@H]1O)N2C)OCO4` [lurbinectedin]: the “ATP signal (cytoplasmic quinacrine granularity)” value in the assay on U2OS WT cells is listed as “significant decrease”. The “therapeutic effect (tumour growth, overall survival)” value in the assay with MCA205 tumours is given as “lost”.
